Test results as given in ChEMBL document CHEMBL3739349, “Cytotoxic Clerodane Diterpenoids from the Leaves of Casearia grewiifolia” (J Nat Prod, 2015).

Columns and labels:
[1] = test system: HepG2; test: Cytotoxicity against human HepG2 cells assessed as growth inhibition after 72 hrs by neutral red staining based colorimetric assay; assay type: functional, cell-based; details: HepG2, 72 h
[2] = Cytotoxicity against mouse NIH/3T3 cells assessed as growth inhibition after 72 hrs by neutral red staining based colorimetric assay; assay type: cell-based; details: NIH3T3, 72 h
[3] = test system: Lu1; test: Cytotoxicity against human Lu1 cells assessed as growth inhibition after 72 hrs by neutral red staining based colorimetric assay; assay type: functional, cell-based; details: Lu1, 72 h
[4] = test system: MCF7; test: Cytotoxicity against human MCF7 cells assessed as growth inhibition after 72 hrs by neutral red staining based colorimetric assay; assay type: functional, cell-based; details: MCF7, 72 h
[5] = test system: KB; test: Cytotoxicity against human KB cells assessed as growth inhibition after 72 hrs by neutral red staining based colorimetric assay; assay type: functional, cell-based
[6] = Cytotoxicity against mouse NIH/3T3 cells assessed as growth inhibition at 100 uM after 72 hrs by neutral red staining based colorimetric assay; assay type: cell-based; details: nih3t3, 72 h

Compound | IC50 [1] | IC50 [2] | IC50 [3] | IC50 [4] | IC50 [5] | Activity [6]
C=CC(=C)CC[C@]1(C)[C@H](C)[C@@H](OC(=O)/C=C/c2ccc(O)cc2)[C@H](O)[C@@]23C(=C[C@H](OC(=O)CC(C)C)C[C@@H]12)[C@H](OC)O[C@H]3OC(C)=O | > 10000 nM | > 10000 nM | > 10000 nM | > 10000 nM | > 10000 nM | 
Cc1c2ccncc2c(C)c2c1[nH]c1ccccc12 [ELLIPTECINE] | 1500 nM | 1300 nM | 1200 nM | 900 nM | 1400 nM | 
C=CC(=C)CC[C@]1(C)[C@H](C)[C@@H](OC(=O)/C=C/c2ccc(O)cc2)[C@H](O)[C@@]23C(=C[C@H](OC(=O)CCC)C[C@@H]12)[C@H](OC)O[C@H]3OC | 7000 nM | > 10000 nM | > 10000 nM | > 10000 nM | 6200 nM | Non-toxic
C=CC(=C)CC[C@]1(C)[C@H](C)C[C@H](O)[C@@]23C(=C[C@H](OC(=O)CCC)C[C@@H]12)[C@@H](OC(C)=O)O[C@H]3OC(C)=O [CASEANIGRESCEN D] | 300 nM | 300 nM | 900 nM | 800 nM | 500 nM | 
